Consider 4 molecules from US10946007B2, “4-[2-(2-fluorophenoxymethyl)phenyl]piperidine compounds” (THERAVANCE BIOPHARMA R&D IP, LLC, priority 2008, dated 2021).

Test [1] concerns the target T1, hSERT (Homo sapiens, UniProt P31645).
T1 construct: expressed in transfected cells; host or cells: HEK-293
Briefly: hSERT membrane radioligand binding assay (Assay 1, 3H-citalopram). The settings on record: Assay 1, membranes of HEK-293 cells expressing hSERT; read-out: SERT pKi (converted). How it is done: (§1) Membrane radioligand binding assays were used to measure competitive inhibition of labeled ligand (^3H-citalopram or ^3H-nisoxetine or ^3H-WIN35428) binding to membranes prepared from cells expressing the respective human recombinant transporter (hSERT or hNET or hDAT) in order to determine the pKi values of test compounds at the transporters.
(§2) Recombinant human embryonic kidney (HEK-293) derived cell lines stably transfected with hSERT or hNET, respectively, were grown in DMEM medium supplemented with 10% dialyzed FBS (for hSERT) or FBS (for hNET), 100 μg/ml penicillin, 100 μg/ml streptomycin, 2 mM L-glutamine and 250 μg/ml of the aminoglycoside antibiotic G418, in a 5% CO2 humidified incubator at 37° C. When cultures reached 80% confluence, the cells were washed thoroughly in PBS (without Ca^2+ and Mg^2+) and lifted with 5 mM EDTA in PBS. Cells were pelleted by centrifugation, resuspended in lysis buffer (10 mM Tris-HCl, pH7.5 containing 1 mM EDTA), homogenized, pelleted by centrifugation, then resuspended in 50 mM Tris-HCl, pH 7.5 and 10% sucrose at 4° C. Protein concentration of the membrane suspension was determined using a Bio-Rad Bradford Protein Assay kit. Membranes were snap frozen and stored at −80° C. Chinese hamster ovary membranes expressing hDAT (CHO-DAT) were purchased from PerkinElmer and stored at −80° C.
(§3) Binding assays were performed in a 96-well assay plate in a total volume of 200 μl assay buffer (50 mM Tris-HCl, 120 mM NaCl, 5 mM KCl, pH 7.4) with 0.5, 1, and 3 μg membrane protein, for SERT, NET and DAT, respectively.
(§4) Stock solutions (10 mM in DMSO) of test compound were prepared and serial dilutions made using Dilution Buffer (50 mM Tris-HCl, 120 mM NaCl, 5 mM KCl, pH 7.4, 0.1% BSA, 400 μM ascorbic acid).
(§5) Following a 60 minute incubation at 22° C. (or a period sufficient to reach equilibrium), the membranes were harvested by rapid filtration over a 96-well UniFilter GF/B plate, pretreated with 0.3% polyethyleneimine, and washed 6 times with 300 μl wash buffer (50 mM Tris-HCl, 0.9% NaCl, pH 7.5 at 4° C.). Plates were dried overnight at room temperature, 45 μl of MicroScint™-20 (Perkin Elmer) added and bound radioactivity quantitated via liquid scintillation spectroscopy. Competitive inhibition curves and saturation isotherms were analyzed using GraphPad Prism Software package (GraphPad Software, Inc., San Diego, Calif.). IC50 values were generated from concentration response curves using the Sigmoidal Dose Response (variable slope) algorithm in Prism GraphPad.

Test [2] has as its target T2, hNET (Homo sapiens, UniProt P23975).
T2 construct: expressed in transfected cells; host or cells: HEK-293
Kind of test: hNET membrane radioligand binding assay (Assay 1, 3H-nisoxetine). The settings on record: Assay 1, membranes of HEK-293 cells expressing hNET; read-out: NET pKi (converted). The method, then:
as §1, §2, §3, §4, §5

T1 sequence (P31645 whole entry): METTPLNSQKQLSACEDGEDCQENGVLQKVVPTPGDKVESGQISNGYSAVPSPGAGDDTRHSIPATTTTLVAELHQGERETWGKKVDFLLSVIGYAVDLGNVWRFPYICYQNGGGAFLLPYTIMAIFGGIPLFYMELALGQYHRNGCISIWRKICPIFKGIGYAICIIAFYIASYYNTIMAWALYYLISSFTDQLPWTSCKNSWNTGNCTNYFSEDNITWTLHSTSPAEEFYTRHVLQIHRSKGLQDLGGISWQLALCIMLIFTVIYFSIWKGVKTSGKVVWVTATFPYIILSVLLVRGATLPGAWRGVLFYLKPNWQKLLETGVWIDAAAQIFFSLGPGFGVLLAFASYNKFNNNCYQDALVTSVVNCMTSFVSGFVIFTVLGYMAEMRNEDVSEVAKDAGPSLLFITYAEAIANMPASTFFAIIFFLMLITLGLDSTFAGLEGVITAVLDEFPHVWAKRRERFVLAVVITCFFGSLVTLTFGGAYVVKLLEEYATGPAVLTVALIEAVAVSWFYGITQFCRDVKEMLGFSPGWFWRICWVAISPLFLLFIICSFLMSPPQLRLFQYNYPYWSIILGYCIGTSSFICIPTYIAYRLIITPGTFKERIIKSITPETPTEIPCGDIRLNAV
T2 sequence (P23975 whole entry): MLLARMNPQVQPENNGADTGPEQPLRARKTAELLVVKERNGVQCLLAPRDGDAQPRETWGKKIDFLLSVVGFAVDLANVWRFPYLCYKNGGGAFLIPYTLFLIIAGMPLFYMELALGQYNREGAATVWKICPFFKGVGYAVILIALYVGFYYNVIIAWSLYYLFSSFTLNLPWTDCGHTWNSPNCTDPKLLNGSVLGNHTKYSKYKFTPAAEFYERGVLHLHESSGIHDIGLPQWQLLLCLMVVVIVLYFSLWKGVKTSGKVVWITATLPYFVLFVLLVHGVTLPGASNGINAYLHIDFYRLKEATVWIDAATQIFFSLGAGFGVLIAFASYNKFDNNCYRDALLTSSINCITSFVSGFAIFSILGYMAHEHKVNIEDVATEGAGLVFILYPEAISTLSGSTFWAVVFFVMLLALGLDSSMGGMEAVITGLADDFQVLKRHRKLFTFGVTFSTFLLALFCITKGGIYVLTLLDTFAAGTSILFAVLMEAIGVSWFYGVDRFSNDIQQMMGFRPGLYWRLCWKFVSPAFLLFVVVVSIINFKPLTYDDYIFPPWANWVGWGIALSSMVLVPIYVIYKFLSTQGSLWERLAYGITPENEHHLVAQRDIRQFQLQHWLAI

As to `Clc1ccccc1OCc1ccccc1C1CCNCC1` [Compound 2-chloro], the figures for the Ki in test [1] and in test [2] were 3.98 nM and 31.6 nM, respectively.
With `Cc1ccccc1OCc1ccccc1C1CCNCC1` [Compound 2-methyl], the Ki is 1.58 nM in test [1] and 31.6 nM in test [2].
Taken in the same sequence, the figures for `Fc1ccccc1OCc1ccccc1C1CCNCC1` [Compound 3-1] were 12.6 nM and 5.01 nM.
The corresponding values for `c1ccc(OCc2ccccc2C2CCNCC2)cc1` [unsubstituted] are 31.6 nM and 39.8 nM.
